Key:
Format in all cases: in vivo
skin [1] = experiment: Primary skin irritation test; details: Concn. 1%, solvent Squalane
Text: (§1) The safety of percutaneous administration of ubidecarenone is high, and skin irritation due to ubidecarenone is minor. For example, the results of primary skin irritation, accumulative irritation, eyelid irritation, phototoxis, sensitization, photosensitization, and patch tests are as shown in Table l.

skin [2] = experiment: Patch test; details: Concn. 1%, solvent Squalane
Text: as §1

eyelid = experiment: Eyelid irritation test; details: Concn. 1%, solvent Squalane
Text: as §1

skin [3] = experiment: Phototoxis test; details: Concn. 1% and 10%, solvent Squalane
Text: as §1

skin [4] = experiment: Accumulative skin irritation test; details: Concn. 1%, solvent Squalane
Text: as §1

skin [5] = experiment: Sensitization test (Adjuvant & Patch method); details: Induction: 5% acetone
Text: as §1

skin [6] = experiment: Photosensitization test (Adjuvant & Strip method); details: Induction: 10% acetone
Text: as §1

SMILES: COC1=C(OC)C(=O)C(C/C=C(\C)CC/C=C(\C)CC/C=C(\C)CC/C=C(\C)CC/C=C(\C)CC/C=C(\C)CC/C=C(\C)CC/C=C(\C)CC/C=C(\C)CCC=C(C)C)=C(C)C1=O [ubidecarenone]
- Primary skin irritation, conclusion (skin [1]): lowly irritative
- Primary skin irritation, result (skin [1]): 0.1
- Patch test, conclusion (skin [2]): lowly irritative
- Patch test, result (skin [2]): 0/54
- Eyelid irritation, conclusion (eyelid): lowly irritative
- Phototoxis, conclusion (skin [3]): lowly phototoxic
- Accumulative skin irritation, result (skin [4]): 0.3
- Sensitization Challenge, result (skin [5]; challenge 1% in acetone): 0/10
- Sensitization Challenge, conclusion (skin [5]; challenge 5% and 1% in acetone): lowly sensitized
- Sensitization Challenge, result (skin [5]; challenge 5% in acetone): 0/10
- Photosensitivization Challenge, result (skin [6]; challenge 0.5 in acetone): 0/5
- Photosensitivization Challenge, result (skin [6]; challenge 1 in acetone): 0/5
- Photosensitivization Challenge, result (skin [6]; challenge 2 in acetone): 0/5
- Photosensitivization Challenge, result (skin [6]; challenge 5 in acetone): 0/5
- Photosensitivization Challenge, result (skin [6]; challenge 10% in acetone): 0/5
- Photosensitivization Challenge, conclusion (skin [6]; challenge 10% to 0.5 in acetone): lowly photosensitized

Source: patent EP0261362A2, “Ubidecarenone as a keloid remedy” (Eisai Co., Ltd., priority 1986, dated 1988)
